Source: patent US20220218732A1, “Selective Inhibitors Of Protein Arginine Methyltransferase 5 (PRMT5)” (Prelude Therapeutics, Incorporated, priority 2019, published 2022)
Where a name gives a salt, the structure may show the parent alone. Read-outs that look alike come from different tables or passages of the source.

Assays:
[1] = tested on: Symmetric Di-Methyl Arginine (sDMA) marks in Granta-519 cell line; test: Cellular assay: Western blot of sDMA (SmD3me2s) and H3R8me2s marks in Granta cells, 3 days, IC50; assay type: cell-based; details: Homo sapiens, 72 h, Table 7
PRMT5/MEP50 complex = PRMT5/MEP50 complex (Homo sapiens, UniProt O14744); test: Biochemical assay: PRMT5/MEP50 methylation of histone H2A with 3H-SAM, filter plate scintillation
Method: Compounds were solubilized, and 3-fold diluted in 100% DMSO. […] Standard reactions were performed in a total volume of 50 μl in assay buffer, with histone H2A (5 μM final) as substrate. To this was added the PRMT5/MEP50 complex diluted to provide a final assay concentration of 5 nM and the compounds were allowed to preincubate for 15 to 20 minutes at room temperature. The reaction was initiated by adding S-[3H-methyl]-adenosyl-L-methionine (PerkinElmer) to final concentration of 1 μM. Following a 60 minutes incubation at 30° C., the reaction was stopped by adding 100 μL of 20% TCA. Each reaction was spotted onto filter plate (MultiScreen FB Filter Plate, Millipore), and washed 5 times with PBS buffer, Scintillation fluid was added to the filter plate and read in a scintillation counter. IC50 values were determined by fitting the data to the standard 4 parameters with Hill Slope using GraphPad Prism software.

[2] = Rat non-crossover PK study of Example 92; assay type: in vivo
Method: In a rat (SD, male, non-fasted) non-crossover PK study, Example 92 was dosed at 1 mg/kg (DMA: 20% HPBCD=5:95, solution) via i.v. administration (N=2) and 1 mg/kg (0.5% Na CMC+0.5% Tween80, solution) via oral gauge (p.o.) (N=2).

[3] = tested on: Type II Collagen-Induced Arthritis (CIA) in female Lewis rats; test: Rat type II collagen-induced arthritis (CIA) model; assay type: in vivo; details: 15 mg/kg PO QD
Method: Female Lewis rats were injected intradermally/subcutaneously (ID/SC) with porcine type II collagen to induce arthritis on Study Days 0 & 7. Rats were then dosed once daily (QD) on Study Days 0-24 (developing) or Days 6-24 (semi-established) by the oral (PO) route with Example 92 (15 mg/kg) or vehicle (0.5% Na CMC+0.5% Tween80, suspension). Rats were euthanized for necropsy on Study Day 25. Efficacy evaluation was based daily ankle diameter caliper measurements, terminal hind paw weights, and histopathology of ankles and knees.

[4] = Rat non-crossover cassette PK study of Example 36; assay type: in vivo; details: rat SD male non-fasted, 2 mg/kg p.o.
Method: In a rat (SD, male, non-fasted) non-crossover cassette PK study, Example 36 was dosed at 0.25 mg/kg via i.v. administration (N=3) and 2 mg/kg via oral gauge (p.o.) (N=3) with other 3 compounds.

[5] = developing mode (Days 0-24), P<0.001

PRMT5/MEP50 complex, sequence (O14744 whole entry, species assumed): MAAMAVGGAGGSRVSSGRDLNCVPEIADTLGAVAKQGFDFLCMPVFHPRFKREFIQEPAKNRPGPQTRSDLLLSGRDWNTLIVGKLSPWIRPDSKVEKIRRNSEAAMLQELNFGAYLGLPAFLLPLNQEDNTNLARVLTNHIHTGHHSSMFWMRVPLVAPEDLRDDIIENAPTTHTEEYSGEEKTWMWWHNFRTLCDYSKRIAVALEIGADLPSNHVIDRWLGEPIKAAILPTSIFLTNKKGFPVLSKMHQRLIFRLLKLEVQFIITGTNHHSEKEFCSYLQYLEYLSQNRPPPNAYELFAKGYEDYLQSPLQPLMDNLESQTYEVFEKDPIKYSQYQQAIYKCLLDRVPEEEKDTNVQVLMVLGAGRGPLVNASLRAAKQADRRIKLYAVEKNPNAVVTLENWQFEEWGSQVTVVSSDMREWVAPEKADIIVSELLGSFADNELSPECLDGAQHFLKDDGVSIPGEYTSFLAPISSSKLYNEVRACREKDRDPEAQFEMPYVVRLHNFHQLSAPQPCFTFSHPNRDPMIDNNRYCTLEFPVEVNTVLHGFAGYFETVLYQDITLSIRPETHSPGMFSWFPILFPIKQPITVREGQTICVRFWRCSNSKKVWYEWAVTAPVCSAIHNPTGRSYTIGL
PRMT5/MEP50 complex, sequence (Q9BQA1 whole entry partner, species assumed): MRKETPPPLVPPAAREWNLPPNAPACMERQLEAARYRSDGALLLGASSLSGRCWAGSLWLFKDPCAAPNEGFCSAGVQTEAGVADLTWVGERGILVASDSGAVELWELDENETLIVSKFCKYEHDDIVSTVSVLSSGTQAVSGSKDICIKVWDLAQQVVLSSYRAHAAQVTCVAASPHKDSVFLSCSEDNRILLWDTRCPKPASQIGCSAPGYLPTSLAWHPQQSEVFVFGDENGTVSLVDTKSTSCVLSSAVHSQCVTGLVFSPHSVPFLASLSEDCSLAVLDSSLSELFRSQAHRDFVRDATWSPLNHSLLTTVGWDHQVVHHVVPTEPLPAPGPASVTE

CO/N=c1\nc[nH]c2c1ccn2[C@@H]1O[C@H]([C@H](O)c2ccc(Cl)c(Cl)c2)[C@@H](O)[C@H]1O [Example 69, 7-((2R,3R,4S,5R)-5-((R)-(3,4-dichlorophenyl)(hydroxy)methyl)-3,4-dihydroxytetrahydrofuran-2-yl)-1,7-dihydro-4H-pyrrolo[2,3-d]pyrimidin-4-one O-methyl oxime hydrochloride]
IC50 [1]: 28 nM

C[C@@H](c1ccc(Cl)cc1)[C@H]1O[C@@H](n2ccc3c(N)ncnc32)[C@H](O)[C@@H]1O [Example 5-C, (2R,3R,4S,5R)-2-(4-amino-7H-pyrrolo[2,3-d]pyrimidin-7-yl)-5-((S)-1-(4-chlorophenyl)ethyl)tetrahydrofuran-3,4-diol hydrochloride]
IC50 (PRMT5/MEP50 complex; Table 9, compounds of Formula V and Formula VI, read-out: PRTMT5/MEP50 IC50): 37 nM

C[C@@](O)(c1ccc(Cl)c(Cl)c1)[C@H]1O[C@@H](n2cnc3c(N)ncnc32)[C@H](O)[C@@H]1O [Example 1-C, (2R,3R,4S,5S)-2-(6-amino-9H-purin-9-yl)-5-((R)-1-(3,4-dichlorophenyl)-1-hydroxyethyl)tetrahydrofuran-3,4-diol]
metabolite in blood samples ([2]; rat, after dosing of Example 92): detected
average of AUC0-int of metabolite ([2]; rat, metabolite after dosing of Example 92): 284 ng·kg·h/mL/mg

CCO/N=c1\nc[nH]c2c1ccn2[C@@H]1OC([C@](C)(O)c2ccc(Cl)cc2)[C@@H](O)[C@H]1O (stereo partly drawn) [Example 83, 7-((2R,3R,4S)-5-((R)-1-(4-chlorophenyl)-1-hydroxyethyl)-3,4-dihydroxytetrahydrofuran-2-yl)-1,7-dihydro-4H-pyrrolo[2,3-d]pyrimidin-4-one O-ethyl oxime]
IC50 [1]: 97 nM
IC50 (PRMT5/MEP50 complex; Table 7, histone H2A substrate, 5 nM enzyme, read-out: PRMT5/MEP50 IC50): 29.1 nM

CO/N=c1\[nH]cnc2c1ncn2[C@@H]1O[C@H]([C@](C)(O)c2ccc(Cl)c(Cl)c2)[C@@H](O)[C@H]1O [Example 92, (2S,3S,4R,5R)-2-[(1R)-1-(3,4-dichlorophenyl)-1-hydroxy-ethyl]-5-[(6Z)-6-methoxyimino-1H-purin-9-yl]tetrahydrofuran-3,4-diol]
average dose normalized AUC0-inf ([2]; rat SD male non-fasted, 1 mg/kg p.o.): 2184 ng·kg·h/mL/mg
histopathology parameters in ankles and knees ([3]; both modes, versus vehicle controls): significantly inhibited all histopathology parameters
reduction in ankle diameter [3, 5]: 63%
reduction in hind paw weight [3, 5]: 67%
reduction in hind paw weight ([3]; semi-established mode (Days 6-24), P<0.01): 51%
reduction in ankle diameter ([3]; semi-established mode (Days 6-24), P<0.05): 34%

CO/N=c1/nc[nH]c2c1ccn2[C@@H]1O[C@H]([C@H](O)c2ccc(Cl)cc2)[C@@H](O)[C@H]1O [Example 36, (2R,3S,4R,5R)-2-[(R)-(4-chlorophenyl)-hydroxy-methyl]-5-(-4-methoxyimino-1H-pyrrolo[2,3-d]pyrimidin-7-yl]tetrahydrofuran-3,4-diol]
average dose normalized AUC [4]: 1738 ng·kg·h/mL/mg
